Among the data in patent publication US20110230476A1, “PI3 KINASE INHIBITORS AND USES THEREOF” (AVILA THERAPEUTICS, INC., priority 2009, published 2011) are EC50 and IC50 values, retold here.

A value given as a limit tells only on which side of the number the result lay.

The test system of one assay is PI3K. Briefly: PI3K HCT116 cellular assay (Western blot). The assay is classed as cell-based. To be noted: Homo sapiens, HCT-116, HCT116 colon cancer cells, 1 hour incubation, read-out: PI3K Inhibition. On the procedure: PI3K HCT116 Cellular Assay
Selected compounds were assayed in HCT116 colon cancer cells. […] Cells were then washed with PBS, lysed and the protein lysates were then recovered and analyzed by Western blot.
In general terms: In western blotting, separated proteins are transferred to a membrane and probed.

Another assay has as its target T1, PI3Kα (p110α/p85α) (Homo sapiens, UniProt P42336).
T1 construct: purchased BPS Bioscience (San Diego, Calif.) or Millipore (Billerica, Mass.)
Briefly: HTRF assay, potency against active PI3Kα. To be noted: HTRF; [ATP]=50 μM, [di-C8-PIP2]=10 μM; 30 min pre-incubation; read-out: PI3Kα Inhibition. Type of assay: biochemical. The procedure, abridged:
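IC50 came from a variable-slope fit of % inhibition, calculated from the HTRF emission ratio relative to wells with and without enzyme. Reactions with the active enzyme complex ran 30-60 minutes at 25 °C after ATP addition before stop and detection reagents.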
(Time-resolved FRET reads energy transfer from a long-lived donor to a nearby acceptor.)

The target in the next assay is T2, PI3Kγ (p120γ) (Homo sapiens, UniProt P48736).
T2 construct: purchased BPS Bioscience (San Diego, Calif.) or Millipore (Billerica, Mass.)
T2 sequence (P48736 whole entry): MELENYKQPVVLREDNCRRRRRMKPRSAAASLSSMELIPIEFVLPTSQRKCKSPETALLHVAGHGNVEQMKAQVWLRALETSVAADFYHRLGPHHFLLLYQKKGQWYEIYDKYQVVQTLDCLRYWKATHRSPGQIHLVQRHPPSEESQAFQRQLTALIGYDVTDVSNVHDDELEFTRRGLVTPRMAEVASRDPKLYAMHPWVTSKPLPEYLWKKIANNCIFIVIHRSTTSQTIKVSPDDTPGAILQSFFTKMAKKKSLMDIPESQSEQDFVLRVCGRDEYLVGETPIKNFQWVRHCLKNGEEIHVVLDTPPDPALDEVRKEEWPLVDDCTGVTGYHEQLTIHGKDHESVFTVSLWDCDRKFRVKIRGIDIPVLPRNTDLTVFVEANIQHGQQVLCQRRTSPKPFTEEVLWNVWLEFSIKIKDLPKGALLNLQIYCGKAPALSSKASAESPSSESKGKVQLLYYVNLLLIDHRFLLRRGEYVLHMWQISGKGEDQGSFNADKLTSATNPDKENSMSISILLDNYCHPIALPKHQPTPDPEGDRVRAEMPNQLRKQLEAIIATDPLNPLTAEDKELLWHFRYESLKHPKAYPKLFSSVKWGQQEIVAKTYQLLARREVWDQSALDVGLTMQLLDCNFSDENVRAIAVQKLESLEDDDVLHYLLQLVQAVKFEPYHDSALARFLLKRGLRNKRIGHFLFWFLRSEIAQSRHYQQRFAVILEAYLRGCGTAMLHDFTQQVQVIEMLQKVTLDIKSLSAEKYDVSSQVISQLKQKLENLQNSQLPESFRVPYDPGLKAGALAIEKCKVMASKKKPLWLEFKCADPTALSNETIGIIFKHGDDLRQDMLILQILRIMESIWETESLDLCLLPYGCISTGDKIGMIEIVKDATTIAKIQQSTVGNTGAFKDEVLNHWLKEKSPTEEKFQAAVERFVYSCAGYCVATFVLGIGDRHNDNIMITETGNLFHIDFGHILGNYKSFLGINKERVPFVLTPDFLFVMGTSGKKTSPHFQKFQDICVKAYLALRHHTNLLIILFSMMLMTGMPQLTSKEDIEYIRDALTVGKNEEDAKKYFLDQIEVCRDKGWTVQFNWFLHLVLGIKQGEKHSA
Briefly: HTRF assay, potency against active PI3Kγ. To be noted: [ATP]=50 μM, [di-C8-PIP2]=10 μM, 30 min pre-incubation, read-out: PI3Kγ Inhibition. Type of assay: biochemical. The text has this: Homogeneous Time Resolved Fluorescence (HTRF) Assay Protocol for Potency Assessment Against the Active Forms of PI3Kα, PI3Kβ, and PI3Kγ
The protocol below describes an end-point, competition-binding HTRF assay used to measure inherent potency of test compounds against active PI3Kα (p110α/p85α), PI3Kβ (p110β/p85α), and PI3Kγ (p120γ) enzymes. The mechanics of the assay platform are best described by the vendor (Millipore, Billerica, Mass.) on their website at the following URL: www.millipore.com/coa/tech1/74jt4z.
Briefly, Stop solution (Stop A, #33-007 and Stop B, #33-009; 3:1 ratio) and Detection Mix (from DMC, #33-015 with DMA, #33-011 and DMB, #33-013; 18:1:1 ratio) were prepared as recommended by the manufacturer about 2 hrs prior to use. Additionally, 1× reaction buffer (from 4× buffer stock# 33-003), 1.4× stocks of PI3Kα, PI3Kβ, and PI3Kγ enzymes from BPS Bioscience (San Diego, Calif.) or Millipore (Billerica, Mass.) with di-C8-PIP2 lipid substrate (#33-005), and a 4×ATP solution (#A7699 Sigma/Aldrich; St. Louis, Mo.) were prepared in 1× reaction buffer. 15 μL of PI3K enzymes and lipid substrate mix were pre-incubated in a Corning (#3573) 384-well, black, non-treated microtiter plate (Corning, N.Y.) for 30 min at 25° C. with a 0.5 μL volume of 50% DMSO and serially diluted compounds prepared in 50% DMSO. Lipid kinase reactions were started with the addition of 5 μL of ATP solution, mixed for 15 sec on a rotary plate shaker and incubated for 30-60 minutes at 25° C. Next, reactions were stopped with a 5 μL addition of Stop solution immediately followed by a 5 μL volume of Detection Mix. Stopped reactions were equilibrated for 1 and 18 hrs at room temperature and read in a Synergy^4 plate reader from BioTek (Winooski, Vt.) at λex330-80/λem620-35 and λem665-7.5. At the conclusion of each assay, the HTRF ratio from fluorescence emission values for each well was calculated and % Inhibition determined from averaged controls wells (+/−PI3K enzyme). % Inhibition values for each compound were then plotted against inhibitor concentration to estimate IC50 from log [Inhibitor] vs Response, Variable Slope model in GraphPad Prism from GraphPad Software (San Diego, Calif.).
[Reagent] used in optimized protocol: • [p110α/p85α]=0.5-1.5 nM, [ATP]=50 μM, [di-C8—PIP2]=10 μM • [p110β/p85α]=0.75 nM, [ATP]=50 μM, [di-C8—PIP2]=10 μM • [p120γ]=2-2.5 nM, [ATP]=50 μM, [di-C8—PIP2]=10 μM • (ATP KMapp for both enzymes was estimated to be 40-70 μM)

T1 sequence (P42336 whole entry): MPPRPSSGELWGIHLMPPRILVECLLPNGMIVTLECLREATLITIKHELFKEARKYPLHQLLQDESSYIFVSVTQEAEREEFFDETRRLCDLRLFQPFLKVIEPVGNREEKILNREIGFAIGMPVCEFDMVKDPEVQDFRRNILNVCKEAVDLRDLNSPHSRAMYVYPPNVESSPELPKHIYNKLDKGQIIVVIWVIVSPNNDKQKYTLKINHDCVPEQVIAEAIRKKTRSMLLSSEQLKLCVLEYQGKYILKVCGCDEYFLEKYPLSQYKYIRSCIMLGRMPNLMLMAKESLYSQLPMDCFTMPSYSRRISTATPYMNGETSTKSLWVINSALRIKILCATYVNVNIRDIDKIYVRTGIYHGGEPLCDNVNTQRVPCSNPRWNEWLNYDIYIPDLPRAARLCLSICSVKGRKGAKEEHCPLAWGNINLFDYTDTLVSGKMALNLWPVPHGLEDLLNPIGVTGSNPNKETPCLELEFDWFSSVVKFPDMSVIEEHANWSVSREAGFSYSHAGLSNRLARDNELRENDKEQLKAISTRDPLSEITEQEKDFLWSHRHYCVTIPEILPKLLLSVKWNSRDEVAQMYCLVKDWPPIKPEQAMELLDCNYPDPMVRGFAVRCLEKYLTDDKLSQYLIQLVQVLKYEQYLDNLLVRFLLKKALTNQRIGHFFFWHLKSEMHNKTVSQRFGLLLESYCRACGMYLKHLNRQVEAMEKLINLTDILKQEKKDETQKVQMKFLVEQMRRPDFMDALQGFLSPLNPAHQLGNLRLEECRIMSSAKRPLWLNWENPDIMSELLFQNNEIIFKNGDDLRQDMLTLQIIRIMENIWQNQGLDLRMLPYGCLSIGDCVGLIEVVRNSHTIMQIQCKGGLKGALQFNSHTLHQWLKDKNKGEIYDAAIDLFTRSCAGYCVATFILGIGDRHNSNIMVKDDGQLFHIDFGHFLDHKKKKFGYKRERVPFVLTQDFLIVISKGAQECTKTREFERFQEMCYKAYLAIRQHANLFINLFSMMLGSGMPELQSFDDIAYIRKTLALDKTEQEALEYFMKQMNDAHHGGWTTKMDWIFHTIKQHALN
T1 sequence (P27986 whole entry partner): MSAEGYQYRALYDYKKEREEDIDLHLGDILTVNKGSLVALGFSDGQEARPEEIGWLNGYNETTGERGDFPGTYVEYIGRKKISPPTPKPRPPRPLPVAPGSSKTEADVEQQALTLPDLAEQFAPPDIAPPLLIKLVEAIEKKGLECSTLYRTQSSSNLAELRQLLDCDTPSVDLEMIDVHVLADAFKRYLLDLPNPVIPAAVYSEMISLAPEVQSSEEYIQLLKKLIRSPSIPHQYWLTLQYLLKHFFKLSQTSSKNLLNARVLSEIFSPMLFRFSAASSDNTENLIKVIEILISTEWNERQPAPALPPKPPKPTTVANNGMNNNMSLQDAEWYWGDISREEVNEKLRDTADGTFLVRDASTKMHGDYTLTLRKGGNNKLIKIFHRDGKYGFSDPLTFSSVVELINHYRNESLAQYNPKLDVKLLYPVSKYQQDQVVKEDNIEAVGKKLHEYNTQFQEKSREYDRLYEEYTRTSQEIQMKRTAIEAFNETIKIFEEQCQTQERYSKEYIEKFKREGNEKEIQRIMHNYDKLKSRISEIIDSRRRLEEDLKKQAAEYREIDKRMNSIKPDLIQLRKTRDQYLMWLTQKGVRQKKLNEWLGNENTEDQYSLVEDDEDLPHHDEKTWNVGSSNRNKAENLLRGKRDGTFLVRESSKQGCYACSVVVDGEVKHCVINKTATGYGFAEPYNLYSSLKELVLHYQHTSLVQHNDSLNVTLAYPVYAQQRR

Take `O=C1NC(=O)/C(=C/c2ccc3nccc(-c4ccncc4)c3c2)S1` [GSK-615, reference compound]: the EC50 in the assay with PI3K was < 20 nM.

In the case of `C=CC(=O)N1CCN(CC#Cc2cc3nc(-c4cccc(O)c4)nc(N4CCOCC4)c3s2)CC1` [II-a-47, 1-(4-(3-(2-(3-hydroxyphenyl)-4-morpholinothieno[3,2-d]pyrimidin-6-yl)prop-2-ynyl)piperazin-1-yl)prop-2-en-1-one], the results for the IC50 on PI3Kα (p110α/p85α) and on PI3Kγ (p120γ) were 10 to 100 nM and > 1000 nM, respectively. Besides, the EC50 in the assay on PI3K lay in the range of 100 to 500 nM.

For `C=CC(=O)N1CCN(Cc2cc3nc(-c4ccccc4)nc(N4CCOCC4)c3s2)CC1` [II-a-17, 1-(4-((4-morpholino-2-phenylthieno[3,2-d]pyrimidin-6-yl)methyl)piperazin-1-yl)prop-2-en-1-one], the IC50 at PI3Kα (p110α/p85α) and on PI3Kγ (p120γ) was > 1000 nM throughout.

Turning to `C=CC(=O)N1CCN(c2ccc(-c3cc4nc(-c5cccc(O)c5)nc(N5CCOCC5)c4s3)cc2)CC1` [II-a-58, 1-(4-(4-(2-(3-hydroxyphenyl)-4-morpholinothieno[3,2-d]pyrimidin-6-yl)phenyl)piperazin-1-yl)prop-2-en-1-one], the IC50 was 10 to 100 nM at PI3Kα (p110α/p85α) and > 1000 nM at PI3Kγ (p120γ).

On to `C=CC(=O)n1cc(-c2ccc3c(c2)N(c2nc4c(s2)C(=O)NC(C)(C)C4)CCO3)cn1` [VI-1, 2-(6-(1-acryloyl-1H-pyrazol-4-yl)-2H-benzo[b][1,4]oxazin-4(3H)-yl)-6,6-dimethyl-6,7-dihydrothiazolo[5,4-c]pyridin-4(5H)-one], for which the IC50 is > 1000 nM at PI3Kα (p110α/p85α) and 100 to 1000 nM at PI3Kγ (p120γ).

With `C=CC(=O)N1CCN(C(=O)C2CCN(Cc3cc4nc(-c5cccc6[nH]ncc56)nc(N5CCOCC5)c4s3)CC2)CC1` [II-a-31, 1-(4-(1-((2-(1H-indazol-4-yl)-4-morpholinothieno[3,2-d]pyrimidin-6-yl)methyl)piperidine-4-carbonyl)piperazin-1-yl)prop-2-en-1-one], the IC50 on PI3Kα (p110α/p85α) was 100 to 1000 nM; on PI3Kγ (p120γ), > 1000 nM.

`CC(C)(C)C#CC(=O)CC[C@H](NC(=O)OC(C)(C)C)C(=O)N1CCN(Cc2cc3nc(-c4cccc5[nH]ncc45)nc(N4CCOCC4)c3s2)CC1` [II-a-51, (S)-tert-butyl 1-(4-((2-(1H-indazol-4-yl)-4-morpholinothieno[3,2-d]pyrimidin-6-yl)methyl)piperazin-1-yl)-8,8-dimethyl-1,5-dioxonon-6-yn-2-ylcarbamate]: the values for the IC50 at PI3Kα (p110α/p85α) and at PI3Kγ (p120γ) were 100 to 1000 nM and > 1000 nM, respectively.

In the case of `C=CS(=O)(=O)N1CCN(Cc2cc3nc(-c4cccc5[nH]ncc45)nc(N4CCOCC4)c3s2)CC1` [II-a-1], the IC50 at PI3Kα (p110α/p85α) and on PI3Kγ (p120γ) was 100 to 1000 nM in each case.

For `C/C=C/C(=O)CCC(=O)NCCS(=O)(=O)N1CCN(Cc2cc3nc(-c4cccc(O)c4)nc(N4CCOCC4)c3s2)CC1` [II-a-26, (E)-N-(2-(4-((2-(3-hydroxyphenyl)-4-morpholinothieno[3,2-d]pyrimidin-6-yl)methyl)piperazin-1-ylsulfonyl)ethyl)-4-oxohept-5-enamide], the IC50 on PI3Kα (p110α/p85α) fell in the range of 10 to 100 nM; on PI3Kγ (p120γ) it was 100 to 1000 nM. Moreover, the EC50 in the assay with PI3K was in the range of 20 to 100 nM.

As for `O=C(/C=C/CNC(=O)CCCC(=O)NCCCOCCOCCOCCCNC(=O)CCCC[C@@H]1SC[C@@H]2NC(=O)N[C@@H]21)CCC(=O)N1CCN(Cc2cc3nc(-c4cccc5[nH]ncc45)nc(N4CCOCC4)c3s2)CC1` [XIV-a-2, N1-((E)-7-(4-((2-(1H-indazol-4-yl)-4-morpholinothieno[3,2-d]pyrimidin-6-yl)methyl)piperazin-1-yl)-4,7-dioxohept-2-enyl)-N5-(15-oxo-19-((3aS,4S,6aR)-2-oxohexahydro-1H-thieno[3,4-d]imidazol-4-yl)-4,7,10-trioxa-14-azanonadecyl)glutaramide], the IC50 at PI3Kα (p110α/p85α) and on PI3Kγ (p120γ) was > 1000 nM each time.

On to `CC(C)=CC(=O)CCC(=O)NCC(=O)N1CCN(Cc2cc3nc(-c4cccc5[nH]ncc45)nc(N4CCOCC4)c3s2)CC1` [II-a-41, N-(2-(4-((2-(1H-indazol-4-yl)-4-morpholinothieno[3,2-d]pyrimidin-6-yl)methyl)piperazin-1-yl)-2-oxoethyl)-6-methyl-4-oxohept-5-enamide], for which the IC50 on PI3Kα (p110α/p85α) and on PI3Kγ (p120γ) was > 1000 nM in each case.

Regarding `C=CC(=O)NCc1ccc(C(=O)N2CCN(Cc3cc4nc(-c5cccc6[nH]ncc56)nc(N5CCOCC5)c4s3)CC2)cc1` [II-a-21, N-(4-(4-((2-(1H-indazol-4-yl)-4-morpholinothieno[3,2-d]pyrimidin-6-yl)methyl)piperazine-1-carbonyl)benzyl)acrylamide], the IC50 at PI3Kα (p110α/p85α) and on PI3Kγ (p120γ) was > 1000 nM each time.

With `CC(C)(C)/C=C\C(=O)CC[C@H](NC(=O)OC(C)(C)C)C(=O)N1CCN(Cc2cc3nc(-c4cccc5[nH]ncc45)nc(N4CCOCC4)c3s2)CC1` [II-a-52, (S)-tert-butyl 1-(4-((2-(1H-indazol-4-yl)-4-morpholinothieno[3,2-d]pyrimidin-6-yl)methyl)piperazin-1-yl)-8,8-dimethyl-1,5-dioxonon-6-en-2-ylcarbamate], the figures for the IC50 at PI3Kα (p110α/p85α) and on PI3Kγ (p120γ) were 100 to 1000 nM and > 1000 nM, respectively.

For the compound `C=CC(=O)NCC(=O)NCC(=O)N1CCN(Cc2cc3nc(-c4cccc5[nH]ncc45)nc(N4CCOCC4)c3s2)CC1` [II-a-32, N-(2-(2-(4-((2-(1H-indazol-4-yl)-4-morpholinothieno[3,2-d]pyrimidin-6-yl)methyl)piperazin-1-yl)-2-oxoethylamino)-2-oxoethyl)acrylamide], the IC50 on PI3Kα (p110α/p85α) is 100 to 1000 nM; on PI3Kγ (p120γ), > 1000 nM.

Regarding `C=CC(=O)N1CCN(C(=O)C2CCN(Cc3cc4nc(-c5cccc(O)c5)nc(N5CCOCC5)c4s3)CC2)CC1` [II-a-34, (1-((2-(3-hydroxyphenyl)-4-morpholinothieno[3,2-d]pyrimidin-6-yl)methyl)piperidin-4-yl)(4-acryloyl-piperazin-1-yl)methanone], the values for the IC50 at PI3Kα (p110α/p85α) and at PI3Kγ (p120γ) were 100 to 1000 nM and > 1000 nM, respectively.

In the case of `C=CC(=O)NCC(=O)N1CCN(Cc2cc3nc(-c4cccc(O)c4)nc(N4CCOCC4)c3s2)CC1` [II-a-38, N-(2-(4-((2-(3-hydroxyphenyl)-4-morpholinothieno[3,2-d]pyrimidin-6-yl)methyl)piperazin-1-yl)-2-oxoethyl)acrylamide], the IC50 was 10 to 100 nM on PI3Kα (p110α/p85α) and > 1000 nM at PI3Kγ (p120γ).

In the case of `C/C=C/C(=O)CCC(=O)NCCS(=O)(=O)N1CCN(Cc2cc3nc(-c4cccc5[nH]ncc45)nc(N4CCOCC4)c3s2)CC1` [II-a-23, (E)-N-(2-(4-((2-(1H-indazol-4-yl)-4-morpholinothieno[3,2-d]pyrimidin-6-yl)methyl)piperazin-1-ylsulfonyl)ethyl)-4-oxohept-5-enamide], the figures for the IC50 on PI3Kα (p110α/p85α) and at PI3Kγ (p120γ) were 100 to 1000 nM and > 1000 nM, respectively.

With `C=CC(=O)N(C)Cc1cc2nc(-c3cccc(O)c3)nc(N3CCOCC3)c2s1` [II-a-39, N-((2-(3-hydroxyphenyl)-4-morpholinothieno[3,2-d]pyrimidin-6-yl)methyl)-N-methylacrylamide], the IC50 at PI3Kα (p110α/p85α) was 10 to 100 nM; at PI3Kγ (p120γ), > 1000 nM.

On to `C=CC(=O)NCCN1CCN(Cc2cc3nc(-c4cccc5[nH]ncc45)nc(N4CCOCC4)c3s2)CC1` [II-a-59], for which the IC50 on PI3Kα (p110α/p85α) and on PI3Kγ (p120γ) was > 1000 nM throughout.

`C/C=C/C(=O)CCC(=O)N(C)Cc1cc2nc(-c3cccc(O)c3)nc(N3CCOCC3)c2s1` [II-a-40, (E)-N-((2-(3-hydroxyphenyl)-4-morpholinothieno[3,2-d]pyrimidin-6-yl)methyl)-N-methyl-4-oxohept-5-enamide]: the IC50 was in the range of 10 to 100 nM at PI3Kα (p110α/p85α) and 100 to 1000 nM on PI3Kγ (p120γ).
